Legend:
[1] = system: pharmacology panel (receptors, channels, transporters, enzymes); assay: In vitro radioligand binding and enzyme and uptake assay panel; conditions: 10 μM
Procedure: (§1) The compound SU056 was tested for its radioligand binding and enzyme and uptake characteristics by Eurofins lab services (Eurofins discovery). The screening was performed at 10 μM of SU056. The binding was calculated as % inhibition of the binding of a radioactively labeled ligand specific to each target. The SU056 enzyme inhibition effect was determined as % inhibition of control enzyme activity.

[2] = system: TNBC cells (MDA-MB-231, MDA-MB-468, SUM159); assay: Immunoblot assay of cell lysates; type: cell-based, human; conditions: MDA-MB-231 and MDA-MB-468, 1 and 2 μM
[3] = system: CA1262-PDX-TNBC and MA2821-PDX-TNBC tumors; assay: Immunoblot of PDX tumor lysates; type: in vivo, mouse; conditions: daily oral 50 mg/kg for 3 weeks
Procedure: MDA-MB-231, MDA-MB-468, and SUM159 cells were grown to 60–70% confluency and treated with DMSO and SU056 (1 μM) for 12 and 24 h. After the specific treatment time was over, total cell lysates were prepared in non-denaturing lysis buffer. For protein lysate from tumors: randomly selected frozen sample; three from vehicle and SU056 treated group were homogenized in non-denaturing lysis buffer at 4°C for 5 min. 10 μg of protein lysate per sample was resolved on 8–16% SDS-PAGE. Membranes were probed with specific primary antibodies followed by detection with HRP-conjugated appropriate secondary antibodies, visualized by enhanced chemiluminescence detection system, and imaged using an iBright imaging system (Thermo Fisher, USA).

[4] = system: normal breast epithelial cells MCF12A; assay: MTT cell viability assay; type: cell-based; conditions: Homo sapiens, MCF-12A, 48 h
Procedure: (§2) MDA-MB-231 (5000 cells per well), MDA-MB-468 (6000 cells per well), SUM159 (3000 cells per well), 4T1 (2000 cells per well), EMT6 (2000 cells per well), E0771 (3000 cells per well), MCF10A (5000 cells per well) and MCF12A (5000 cells per well) cells were seeded in 96-well culture plates. On the next day, cells were treated with either DMSO or indicated concentrations of SU056 for 48 h 3-(4,5-dimethylthiazol-2-yl)-2,5-diphenyltetrazolium bromide (MTT) (0.5 mg/mL) was dissolved in 1x PBS and 50 μL were added to each well and allowed to form formazan crystals (1–2 h) followed by removal of MTT. Formazan crystals were dissolved in DMSO and plates were scanned at 570nm using a Tecan multimode plate reader.
(§3) Data S1. SU056 induces cell cycle arrest and apoptotic cell death, related to Figure 1 A) The growth inhibitory effect of SU056 was evaluated using the MTT assay (0.5 mg/ml in 1x PBS). Normal breast epithelial cells (MCF10A and MCF12A) were plated in a 96 well plate. On the next day, cells were treated with vehicle (DMSO) alone or 0.005-50 μM of […]
(§4) SU056 in fresh medium. […]
(§5) SU056 treatment led to cell cycle arrest at the G2/M phase and induced cell death in TNBC cells. E) MDA-MB-231 and F) MDA-MB-468 cells were analyzed for cell death using Annexin V-FITC Apoptosis Assay kit. Cell lysates were analyzed for Bax and BCL-2 proteins. b-actin was probed to ensure equal protein loading. […]

[5] = system: normal breast epithelial cells MCF10A; assay: MTT cell viability assay; type: cell-based; conditions: Homo sapiens, MCF-10A, 48 h
Procedure: as §2, §3, §4, §5

[6] = system: translation machinery molecules (RPLs, RPSs, eIFs) in MDA-MB-231-YB-1 knockdown cells; assay: CETSA in YB-1 knockdown cells; type: binding, human; conditions: YB-1 knockdown vs scrambled control cells
Text: In the second CETSA experiment with MDA-MB-231- YB-1 knockdown cells, the Orbitrap Eclipse Tribrid mass spectrometer parameters consisted of setting the cycle time at Top-speed at 1 s, the mass scan range set between 375 and 1800 m/z, and a mass resolution of 50,000. The normalized AGC target and maximum injection time was set to standard and auto respectively. The precursor ions were selected from highest to lowest charge state, sorted by the lowest m/z, and fragmented using Higher Energy Collisional Dissociation (HCD) with a fixed collisional energy of 38%. Dynamic exclusion was enabled for 60 s with a mass tolerance of ±10 ppm. The normalized AGC target set to 200% with a maximum injection time of 86 ms. MS2 fragments were detected in the Orbitrap with a mass resolution of 50,000 and scan range window of 110–1800 m/z.
Proteins were quantified using individual spectra matched peptides based on a sum-based bootstrap algorithm, which used the TMT reporter ion intensity after correcting for isotope impurities with Proteome Discoverer 2.4. The protein levels were compared between the vehicle and SU056 treated samples. The lowest temperature was used as a reference to calculate the log2 ratio of the soluble fraction signal at each temperature, and the signal at each temperature was compared to the […] temperature to estimate the percentage of signal lost in the soluble fraction. […]

PDE4D2 = target: T1, PDE4D2 (Homo sapiens, UniProt Q08499); assay: Enzyme assay (in vitro pharmacology); type: biochemical; conditions: 10 μM
T1 construct: purchased Eurofins Discovery
Procedure: as §1

COX2 = target: T2, COX2 (Homo sapiens, UniProt P35354); assay: Enzyme assay (in vitro pharmacology); type: biochemical; conditions: 10 μM
T2 construct: purchased Eurofins Discovery
Procedure: as §1

T1 sequence (Q08499 303-809 limits assumed): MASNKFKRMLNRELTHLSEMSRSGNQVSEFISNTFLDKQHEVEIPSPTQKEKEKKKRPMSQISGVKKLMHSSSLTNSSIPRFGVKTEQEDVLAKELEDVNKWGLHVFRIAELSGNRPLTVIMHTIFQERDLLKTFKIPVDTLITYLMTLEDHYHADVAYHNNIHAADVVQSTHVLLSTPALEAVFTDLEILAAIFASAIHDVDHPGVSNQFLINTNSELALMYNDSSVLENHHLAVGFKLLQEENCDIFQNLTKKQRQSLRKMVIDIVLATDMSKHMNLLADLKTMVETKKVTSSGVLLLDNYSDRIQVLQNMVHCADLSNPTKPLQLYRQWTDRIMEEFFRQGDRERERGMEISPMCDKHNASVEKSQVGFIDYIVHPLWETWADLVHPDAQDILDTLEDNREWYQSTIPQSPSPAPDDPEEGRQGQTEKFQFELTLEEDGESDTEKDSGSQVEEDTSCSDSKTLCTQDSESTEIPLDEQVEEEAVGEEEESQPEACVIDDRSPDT
T2 sequence (P35354 18-604): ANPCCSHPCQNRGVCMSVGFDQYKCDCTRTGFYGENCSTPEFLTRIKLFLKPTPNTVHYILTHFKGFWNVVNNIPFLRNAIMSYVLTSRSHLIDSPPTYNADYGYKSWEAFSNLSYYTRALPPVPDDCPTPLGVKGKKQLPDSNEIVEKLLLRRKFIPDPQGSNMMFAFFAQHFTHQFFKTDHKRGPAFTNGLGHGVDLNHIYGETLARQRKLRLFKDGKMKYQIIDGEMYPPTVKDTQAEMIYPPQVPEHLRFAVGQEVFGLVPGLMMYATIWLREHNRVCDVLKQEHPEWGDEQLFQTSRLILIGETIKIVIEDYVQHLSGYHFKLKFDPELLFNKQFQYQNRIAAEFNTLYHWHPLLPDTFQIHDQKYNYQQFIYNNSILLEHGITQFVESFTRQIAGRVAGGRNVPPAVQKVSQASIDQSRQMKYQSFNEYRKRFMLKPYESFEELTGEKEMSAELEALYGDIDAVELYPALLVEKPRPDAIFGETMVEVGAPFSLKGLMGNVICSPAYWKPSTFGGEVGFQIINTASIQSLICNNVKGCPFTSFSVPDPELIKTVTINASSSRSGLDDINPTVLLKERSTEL

In the case of O=C1OCC2=C1C(c1cccc(F)c1)c1cc3c(cc1N2CCO)OCO3 (stereo not drawn) [SU056, 9-(3-fluorophenyl)-5-(2-hydroxyethyl)-6,9-dihydro-[1,3]dioxolo[4,5-g]furo[3,4-b]quinolin-8(5H)-one], the “effect on major pharmacological parameters (binding and enzyme assays)” value [1] is reported as “does not affect”, the BCL-2 expression [2] is reported as “inhibited” and the Bax expression [2] is reported as “induced”. For the same compound, the “levels of YB-1 and RPL-11 in tumors” value [3] was “decrease”, the IC50 [4] was 4.65 ± 2.25 µM and the IC50 [5] was 4.77 ± 1.61 µM. For the same compound, the “thermal stability of translation machinery molecules (RPLs, RPSs, and eIFs)” value [6] was “does not increase”, the enzyme activity (PDE4D2) was “inhibits” and the enzyme activity (COX2) was “inhibits”.

From PMC11148772, “Inhibition of protein translational machinery in triple-negative breast cancer as a promising therapeutic strategy” (Cell Reports Medicine, 2024)
